PubChem BioAssay AID1288 (Columbia University Molecular Screening Center, 2008)
pIC50: −log10 of the molar value. The source made the active and inactive calls. How the calls were made is not given here.

How the values were obtained:
[1] = tested on: human endothelial cells, TNFa-induced E-selectin, imaging; test: E-selectin induction blockers, endothelial cells – imaging, retest plus dose response, cell count, confirmation (AID 1288);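 on inhibition: 0% = stimulated vehicle wells and 100% = unstimulated vehicle wells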
[2] = as above; settings: human endothelial cells, TNFa-induced E-selectin, imaging; for cell count: cell count toxicity, at 10 µM, stronger effect = lower value; for inhibition: at 2 µM, stronger effect = higher value

Row | Compound | pIC50 [1] | cell count [2] [%] | IC50 [1] | inhibition [2]
1 | Cc1c(Nc2cc(Cl)c3nonc3c2[N+](=O)[O-])c(=O)n(-c2ccccc2)n1C | 5.18 | 66.3 | – | –
2 | N#CC(C#N)=C1C=CC=CN1/C(=C\c1ccco1)C(=O)c1ccc(-c2ccccc2)cc1 | 5.55 | 2.93 | – | –
3 | C=CS(=O)(=O)c1ccc(Oc2ccc(S(=O)(=O)C=C)cc2)cc1 | – | 95.2 | > 10 µM (inactive) | –
4 | O=C(Cn1ncc(Cl)c(Cl)c1=O)N1CCc2ccccc21 | 5.61 | 40 | – | –
5 | N#Cc1ccc(-c2cccnc2)nc1SCc1ccc(Cl)c(Cl)c1 | 5.56 | 2.48 | – | –
6 | COc1ccc(NC(=O)c2cc3c(Cl)nc4ccccc4c3s2)c(OC)c1 | – | 89.6 | > 10 µM (inactive) | –
7 | COc1cccc(N2CCN(c3ncnc4c3[nH]c3ccc(F)cc34)CC2C)c1 (stereo not given) | 5.85 | 40.9 | – | –
8 | Cn1c(SC2=CS(=O)(=O)c3ccccc32)nc2ccccc21 | 5.60 | 13.4 | – | –
9 | C=C1C(=O)[C@@]23[C@H](O)C[C@@H]4C(C)(C)CC[C@H](O)[C@@]4(C)[C@@H]2CC[C@@H]1[C@H]3O | 5.70 | 10.1 | – | –
10 | O=S(=O)(/C(=C/c1ccc(C(F)(F)F)cc1)c1nc2ccccc2[nH]1)c1ccccc1 | – | 104 | > 10 µM (inactive) | –
11 | COC(=O)c1ccccc1NC(=O)c1ccc(-c2cccc(Cl)c2)o1 | 5.68 | 13.8 | – | –
12 | CN1/C(=C/C(=O)c2nc(S(C)(=O)=O)ncc2Cl)C(C)(C)c2ccccc21 | – | 97.9 | > 10 µM (inactive) | –
13 | Cc1ccccc1NC1=C/C(=N\S(=O)(=O)c2cccs2)c2ccccc2C1=O | – | 107 | > 10 µM (inactive) | –
14 | O=S(=O)(C/C(=C/CO)S(=O)(=O)c1ccccc1)c1ccccc1 | – | 97.8 | > 10 µM (inactive) | –
15 | CN(C)c1nc(C=C(C#N)C#N)c(Cl)n1-c1ccc(F)cc1 | 5.76 | 46.6 | – | –
16 | CN(CCC#N)C(=O)COC(=O)c1ccccc1C(=O)c1ccc(Cl)c([N+](=O)[O-])c1 | 5.86 | 15.6 | – | –
17 | Cc1ccc2nc(-c3ccc(NC(=O)CCN4C(=O)c5ccccc5C4=O)cc3)sc2c1 | – | 107 | > 10 µM (inactive) | –
18 | COc1ccc(NC(=O)/C(Cl)=C(/Cl)S(=O)(=O)Cc2ccc(C)cc2)cn1 | – | 89.6 | > 10 µM (inactive) | –
19 | CC(C)(C)C(=O)/C(=C\c1ccc([N+](=O)[O-])cc1)n1cncn1 | – | 94.9 | > 10 µM (inactive) | –
20 | COCCN(CC(=O)NC1CCCCC1)C(=O)/C=C/C(=O)c1ccc(OC)cc1O | – | 95 | > 10 µM (inactive) | –
21 | CS(=O)(=O)c1ccc(S(=O)CC(=O)OCc2ccccc2)c([N+](=O)[O-])c1 (stereo not given) | – | 98.7 | > 10 µM (inactive) | –
22 | CCN1C/C(=C/c2ccc(OC)c(O)c2)C(=O)/C(=C/c2ccc(OC)c(O)c2)C1 | 5.52 | 15.1 | – | –
23 | Cc1ccc(-c2nc(NC(=O)c3nn(C)cc3[N+](=O)[O-])sc2C)cc1C | – | 106 | > 10 µM (inactive) | –
24 | O=C(OCn1ncc(Cl)c(Cl)c1=O)c1cccc(C(F)(F)F)c1 | – | 102 | > 10 µM (inactive) | –
25 | CCOC(=O)CS(=O)(=O)c1nc(-c2ccccc2)cc(C(F)(F)F)n1 | – | 106 | > 10 µM (inactive) | –
26 | CN1C(=O)/C(=C/c2cccn2-c2ccc3ccccc3c2)C(=O)NC1=S | 5.16 | 106 | – | –
27 | C=CCSc1nc2ccccc2n1C(=O)/C=C/c1cc(OC)c(OC)c(OC)c1 | 5.66 | 24.8 | – | –

Row | Compound | pIC50 [1] | cell count [2] [%] | IC50 [1] | inhibition [2]
28 | CN1C2CCC1/C(=C/c1ccccn1)C(=O)/C2=C\c1ccccn1 | 5.55 | 51.6 | – | –
29 | CC1C/C(=C/c2ccncc2)C(=O)/C(=C/c2ccncc2)C1 (stereo not given) | 5.31 | 84.9 | – | –
30 | CCOC(=O)CS(=O)(=O)c1nc(-c2ccc(F)cc2)cc(C(F)(F)F)n1 | – | 98.3 | > 10 µM (inactive) | –
31 | CN(C)C(=O)Oc1c(Cl)cc(Cl)c2cccnc12 | 5.59 | 20.8 | – | –
32 | COc1ccc(CS(=O)/C(Cl)=C(/Cl)C(=O)Nc2ccc(OC)nc2)cc1 (stereo not given) | 5.69 | 10.3 | – | –
33 | O=C(Nc1ccccc1)c1nnsc1S(=O)c1ccc(Cl)cc1 (stereo not given) | 5.45 | 16.1 | – | –
34 | Cn1cc([N+](=O)[O-])c(C(=O)Nc2nc(-c3ccc(Cl)cc3)cs2)n1 | – | 97.8 | > 10 µM (inactive) | –
35 | Cc1nc2scc(-c3ccccc3)c2c(=O)n1N=C1C=CC(=O)C=C1 | – | 92.3 | > 10 µM (inactive) | –
36 | CCN(CC)c1ccc2c(Cl)c(Br)c(=O)oc2c1 | 5.67 | 11.5 | – | –
37 | N#CC(C#N)=C1C=CC=CN1/C(=C\c1ccccc1Cl)C(=O)c1ccccc1 | 5.30 | 68.3 | – | –
38 | O=S1(=O)C=C(Sc2nnc(-c3ccccc3)o2)c2ccccc21 | – | 72.7 | > 10 µM (inactive) | –
39 | O=C(NCCC1=CCCCC1)c1coc(=O)c(Br)c1 | 5.56 | 1.14 | – | –
40 | C#CC(=O)N(c1cccc(OC)c1)C(C(=O)NC1CCCC1)c1cccs1 (stereo not given) | – | 90 | > 10 µM (inactive) | –
41 | C=C1C(=O)C=C2CN(C(=O)c3ccccc3)[C@@](Cc3ccc(F)cc3)(C(=O)OC)[C@@H]12 | – | 104 | > 10 µM (inactive) | –
42 | COc1cccc(-n2nc(C#N)c(Cl)cc2=O)c1 | – | 104 | > 10 µM (inactive) | –
43 | COc1ccc(NC(=O)/C(Cl)=C(/Cl)S(=O)Cc2ccccc2Cl)cn1 (stereo not given) | 5.27 | 99.9 | – | –
44 | Cc1ccc(Cl)c(NC(=O)COC(=O)c2ccccc2C(=O)c2ccc(Cl)c([N+](=O)[O-])c2)c1Cl | – | 96.8 | > 10 µM (inactive) | –
45 | O=C(c1ccc([N+](=O)[O-])cc1)N(Cc1ccc(Br)cc1)N1C(=O)CCCC1=O | 5.17 | 95.3 | – | –
46 | Cc1ccc(-c2nc(NC(=O)c3nn(C)cc3[N+](=O)[O-])sc2C)cc1 | 5.28 | 69.6 | – | –
47 | O=C(Nc1ccccc1)C1=C(c2ccccc2)S(=O)(=O)CCS1(=O)=O | 5.12 | 77.8 | – | –
48 | COc1cc(NC(=O)Cn2ncc(Cl)c(Cl)c2=O)c(C)cc1[N+](=O)[O-] | – | 90.1 | > 10 µM (inactive) | –
49 | Cc1ccc(C(=O)OCn2ncc(Cl)c(Cl)c2=O)cc1 | – | 101 | > 10 µM (inactive) | –
50 | CC(C)(C)C1=CC(=O)C(=O)C(C(C)(C)C)=C1 | – | 95 | > 10 µM (inactive) | –
51 | Cc1cc(C)cc(NC(=O)c2ccc([N+](=O)[O-])o2)c1 | 5.68 | 98.3 | – | –
52 | CC(C)Oc1ccc(/C=N/NC(=O)C(CSCc2ccccc2)NC(=O)c2ccc([N+](=O)[O-])cc2)cc1 (stereo not given) | – | 71.8 | > 10 µM (inactive) | –
53 | CCc1c(C)c(C#N)c2nc3ccccc3n2c1Cl | 5.70 | 70 | – | –
54 | C#CC(=O)N(c1cc(OC)ccc1OC)C(C(=O)NC1CCCC1)c1cccs1 (stereo not given) | 5.02 | 33.9 | – | –

Row | Compound | pIC50 [1] | cell count [2] [%] | IC50 [1] | inhibition [2]
55 | O=Cc1s/c(=N\S(=O)(=O)c2ccccc2)n(CCCCl)c1Cl | – | 108 | > 10 µM (inactive) | –
56 | Oc1ccc(N2CCN(c3ncnc4sc(-c5ccccc5)cc34)CC2)cc1 | 5.73 | 25.6 | – | –
57 | COCC(C)NC(=O)CCS(=O)(=O)c1nc(-c2ccc(OC)cc2)cc(C(F)(F)F)n1 (stereo not given) | – | 83 | > 10 µM (inactive) | –
58 | COc1ccc(CS(=O)(=O)/C(Cl)=C(/Cl)C(=O)Nc2ccc(OC)nc2)cc1 | – | 105 | > 10 µM (inactive) | –
59 | Cc1ccc2nc3cc([N+](=O)[O-])cc([N+](=O)[O-])c3cc2c1 | – | 101 | > 10 µM (inactive) | –
60 | O=C(Nc1ccc2oc(-c3cccnc3)nc2c1)c1ccc([N+](=O)[O-])o1 | 5.56 | 54.4 | – | –
61 | Cc1cc2cc(C=C(C#N)C#N)c(Cl)nc2cc1C | 5.62 | 4.88 | – | –
62 | CCCn1c(=NC(=O)c2ccco2)c(C(=O)OCC)cc2c(=O)n3ccccc3nc21 | 5.36 | 64.4 | – | –
63 | O=C(/C=C/c1cccc([N+](=O)[O-])c1)n1cnc2ccccc21 | 5.42 | 19.1 | – | –
64 | O=C(CS(=O)c1ccc(C(F)(F)F)cc1[N+](=O)[O-])Oc1ccccc1 (stereo not given) | – | 88.5 | > 10 µM (inactive) | –
65 | CC(C)(C)C(=O)/C(=C\c1cccc([N+](=O)[O-])c1)n1cncn1 | 5.52 | 23.9 | – | –
66 | COc1ccc(-c2nnc(SCC(=O)N3CCOCC3)o2)cc1OC | 5.39 | 18.5 | – | –
67 | COc1ccc(-c2cc(C(=O)Nc3cnn(Cc4ccccc4C)c3)no2)cc1OC | 5.21 | 80.4 | – | –
68 | O=C(Nc1ccc2nc(SCc3ccc(Cl)cc3)sc2c1)c1ccccc1C(=O)N1CCOCC1 | 5.55 | 40 | – | –
69 | CC(C)(C)C(=O)/C(=C/c1cccc([N+](=O)[O-])c1)n1cncn1 | – | 101 | > 10 µM (inactive) | –
70 | COc1ccc(NC(=O)/C(Cl)=C(/Cl)S(=O)Cc2ccc(Cl)cc2)cn1 (stereo not given) | 5.78 | 0.27 | – | –
71 | O=C(c1cccs1)N1CCN=C1SCc1ccccc1 | – | – | – | 9.69% (inactive)
72 | Cc1nc(SCC(N)=O)c([N+](=O)[O-])[nH]1 | – | – | – | 9.44% (inactive)
73 | COc1ccc(OCC(=O)N2CCN(Cc3c[nH]c4ccccc34)CC2)cc1 | – | – | – | -1.94% (inactive)
74 | C=CCN(CC=C)C(=O)Nc1cc(Cl)ccc1OC | – | – | – | 15.5% (inactive)
75 | N/C(Cc1ccc([N+](=O)[O-])cc1)=N\OC(=O)COc1ccc2ccccc2c1 | – | – | – | 12.6% (inactive)
76 | CS(=O)(=O)C1=NSC2=NC(=O)/C(=C\c3cccn3-c3ccc(Cl)cc3)C(=N)N21 | – | – | – | 17.3% (inactive)
77 | COc1ccc(OC)c(CCNC(=O)CSc2ccsc2[N+](=O)[O-])c1 | – | – | – | 4.97% (inactive)
78 | COc1ccccc1Cc1nc(-c2ccncc2)no1 | – | – | – | 13.1% (inactive)
79 | Cc1ccc(C)n1-c1cccc(NC(=O)c2ccccc2)c1 | – | – | – | 0.87% (inactive)
80 | CN(C)S(=O)(=O)c1cc(NC(=O)CN2C(=O)NC3(CCCc4ccccc43)C2=O)ccc1Cl (stereo not given) | – | – | – | 4.67% (inactive)
